From US9593305B2, “Differentiation of pluripotent stem cells” (Janssen Biotech, Inc., priority 2008, dated 2017)

Tested on: H1 human embryonic stem cells
Experiment: Step-wise differentiation, RT-PCR of differentiation markers (Example 17, Table 15)
Assay type: cell-based
Protocol: Stock cultures of human embryonic stem cells (H1 human embryonic stem cell line) were maintained in an undifferentiated, pluripotent state on reduced growth factor […]™ (BD Biosciences; Cat #356231)-coated dishes in MEF conditioned medium supplemented with 8 ng/ml bFGF (PeproTech Inc.; Cat #100-18B) with passage on average every four days. Passage was performed by exposing cell cultures to a solution of 1 mg/ml dispase (Invitrogen; Cat #17105-041) for 5 to 7 minutes at 37° C. followed by rinsing the monolayer with MEF conditioned culture medium and gentle scraping to recover cell clusters. Clusters were centrifuged at low speed to collect a cell pellet and remove residual dispase. Cell clusters were split at a 1:3 or 1:4 ratio for routine maintenance culture or a 1:1 ratio for immediate assay. All human ES cell lines were maintained at passage numbers less than 50 and routinely evaluated for normal karyotype and absence of mycoplasma.
Cell clusters were evenly resuspended in MEF conditioned medium supplemented with 8 ng/ml bFGF and plated onto reduced growth factor […]™-coated 24-well, black wall culture plates (Arctic White; Cat #AWLS-303012) in volumes of 0.5 ml/well. Daily feeding was conducted by aspirating spent culture medium from each well and replacing with an equal volume of fresh medium. Plates were maintained at 37° C., 5% CO2 throughout assay.
The assay was initiated by aspirating the culture medium from each well and adding back an aliquot (0.5 ml) of test medium. Test conditions for the first step of differentiation were conducted over a three-day period, feeding daily by aspirating and replacing the medium from each well with fresh test medium. On the first day of assay, 100 ng/ml activin A (PeproTech; Cat #120-14) or 100 ng/ml GDF-8 (R&D Systems, Cat #788-G8) was added to respective assay wells where each growth factor was diluted into RPMI-1640 medium (Invitrogen; Cat #: 22400) with 2% Albumin Bovine Fraction V, Fatty Acid Free (FAF BSA) (MP Biomedicals, Inc; Cat #152401). In some samples, 20 ng/ml Wnt3a (R&D Systems; Cat #1324-WN/CF) was also included. On the second day of assay, 100 ng/mlactivin A or 100 ng/ml GDF-8 was diluted into RPMI-1640 medium supplemented with 2% FAF BSA, omitting Wnt3a from all samples. In some test samples using GDF-8, Wnt3a was replaced with a given concentration of small molecule compound, added only on the first day of definitive endoderm differentiation. […] At the conclusion of the first step of differentiation, cells from some wells were harvested for flow cytometry analysis to evaluate levels of CXCR4, a marker of definitive endoderm formation. Additional wells were harvested for RT-PCR analysis to measure other markers of differentiation.
At the conclusion of the first step of definitive endoderm differentiation, replicate sets of parallel wells from each treatment group were subjected to further step-wise differentiation. It is important to note that after the first differentiation step, all wells undergoing subsequent culture and differentiation received the same treatment. The protocol for this continuing differentiation is described below.
Step 2 of the differentiation protocol was carried out over two days. Cells were fed daily by aspirating the medium from each well and replacing with a fresh aliquot (0.5 ml) of DMEM:F12 medium (Invitrogen; Cat #11330-032) containing 2% FAF BSA, 50 ng/ml FGF7 (PeproTech; Cat #100-19), and 250 nM cyclopamine-KAAD (Calbiochem; Cat #239804).
Step 3 of the differentiation protocol was carried out over four days. […]

[1] = Step 5, cells harvested at end of step, treatment given during step one

Substance: Activin A: recombinant human activin A (PeproTech), TGF-beta family member
- RT-PCR CT Values AFP (Step 1): 32.8
- RT-PCR CT Values CD9 (Step 1): 25.2
- RT-PCR CT Values CD99 (Step 1): 24.0
- RT-PCR CT Values CDH (Step 1): 21.8
- RT-PCR CT Values CDH1 (Step 1): 26.1
- RT-PCR CT Values CDX2 (Step 1): 36.0
- RT-PCR CT Values CER1 (Step 1): 18.3
- RT-PCR CT Values CXCR4 (Step 1): 20.4
- RT-PCR CT Values FGF4 (Step 1): 34.0
- RT-PCR CT Values FGF17 (Step 1): 20.7
- RT-PCR CT Values FOXA2 (Step 1): 25.1
- RT-PCR CT Values GAPDH (Step 1): 19.4
- RT-PCR CT Values GATA4 (Step 1): 25.0
- RT-PCR CT Values GATA6 (Step 1): 22.9
- RT-PCR CT Values GSC (Step 1): 22.4
- RT-PCR CT Values HLXB9 (Step 1): 24.8
- RT-PCR CT Values KIT (Step 1): 22.7
- RT-PCR CT Values MIXL1 (Step 1): 28.9
- RT-PCR CT Values NANOG (Step 1): 24.1
- RT-PCR CT Values OTX2 (Step 1): 22.5
- RT-PCR CT Values POU5F1 (Step 1): 32.2
- RT-PCR CT Values SOX7 (Step 1): 32.3
- RT-PCR CT Values SOX17 (Step 1): 21.6
- RT-PCR CT Values T (Step 1): 36.1
- RT-PCR CT Values ALB (Step 3): 26.9
- RT-PCR CT Values AMY2A (Step 3): 30.6
- RT-PCR CT Values ARX (Step 3): 32.0
- RT-PCR CT Values CDX2 (Step 3): 22.9
- RT-PCR CT Values GAPDH (Step 3): 18.5
- RT-PCR CT Values GCG (Step 3): 34.1
- RT-PCR CT Values HNF4A (Step 3): 22.4
- RT-PCR CT Values INS (Step 3): 34.8
- RT-PCR CT Values ISL1 (Step 3): 29.3
- RT-PCR CT Values MAFA (Step 3): 36.4
- RT-PCR CT Values MAFB (Step 3): 27.4
- RT-PCR CT Values NEUROD1 (Step 3): 30.1
- RT-PCR CT Values NEUROG3 (Step 3): 28.0
- RT-PCR CT Values NKX2-2 (Step 3): 29.3
- RT-PCR CT Values NKX2-5 (Step 3): 34.6
- RT-PCR CT Values NKX6-1 (Step 3): 32.2
- RT-PCR CT Values PAX4 (Step 3): 31.4
- RT-PCR CT Values PAX6 (Step 3): 40.0
- RT-PCR CT Values PDX1 (Step 3): 23.3
- RT-PCR CT Values PECAM (Step 3): 31.0
- RT-PCR CT Values POU3F4 (Step 3): 30.5
- RT-PCR CT Values PTF1A (Step 3): 34.6
- RT-PCR CT Values SST (Step 3): 33.2
- RT-PCR CT Values ZIC1 (Step 3): 34.8
- RT-PCR CT Values ALB (Step 4): 22.4
- RT-PCR CT Values AMY2A (Step 4): 28.6
- RT-PCR CT Values ARX (Step 4): 23.9
- RT-PCR CT Values CDX2 (Step 4): 23.7
- RT-PCR CT Values GAPDH (Step 4): 19.0
- RT-PCR CT Values GCG (Step 4): 22.8
- RT-PCR CT Values HNF4A (Step 4): 22.1
- RT-PCR CT Values INS (Step 4): 23.6
- RT-PCR CT Values ISL1 (Step 4): 24.1
- RT-PCR CT Values MAFA (Step 4): 30.6
- RT-PCR CT Values MAFB (Step 4): 23.5
- RT-PCR CT Values NEUROD1 (Step 4): 23.7
- RT-PCR CT Values NEUROG3 (Step 4): 23.3
- RT-PCR CT Values NKX2-2 (Step 4): 24.0
- RT-PCR CT Values NKX2-5 (Step 4): 31.9
- RT-PCR CT Values NKX6-1 (Step 4): 27.4
- RT-PCR CT Values PAX4 (Step 4): 25.7
- RT-PCR CT Values PAX6 (Step 4): 27.1
- RT-PCR CT Values PDX1 (Step 4): 23.7
- RT-PCR CT Values PECAM (Step 4): 29.8
- RT-PCR CT Values POU3F4 (Step 4): 26.5
- RT-PCR CT Values PTF1A (Step 4): 29.6
- RT-PCR CT Values SST (Step 4): 24.3
- RT-PCR CT Values ZIC1 (Step 4): 32.5
- RT-PCR CT Values ALB (Step 5): 20.2
- RT-PCR CT Values AMY2A (Step 5): 27.6
- RT-PCR CT Values ARX (Step 5): 22.0
- RT-PCR CT Values CDX2 (Step 5): 23.4
- RT-PCR CT Values GAPDH (Step 5): 18.3
- RT-PCR CT Values GCG (Step 5): 14.1
- RT-PCR CT Values HNF4A (Step 5): 21.3
- RT-PCR CT Values INS (Step 5): 14.9
- RT-PCR CT Values ISL1 (Step 5): 22.4
- RT-PCR CT Values MAFA (Step 5): 31.8
- RT-PCR CT Values MAFB (Step 5): 22.2
- RT-PCR CT Values NEUROD1 (Step 5): 22.8
- RT-PCR CT Values NEUROG3 (Step 5): 28.1
- RT-PCR CT Values NKX2-2 [1]: 23.7 CT
- RT-PCR CT Values NKX2-5 [1]: 34.1 CT
- RT-PCR CT Values NKX6-1 [1]: 25.5 CT
- RT-PCR CT Values PAX4 [1]: 27.3 CT
- RT-PCR CT Values PAX6 [1]: 24.0 CT
- RT-PCR CT Values PDX1 [1]: 23.2 CT
- RT-PCR CT Values PECAM [1]: 30.1 CT
- RT-PCR CT Values POU3F4 [1]: 28.8 CT
- RT-PCR CT Values PTF1A [1]: 27.3 CT
- RT-PCR CT Values SST [1]: 19.6 CT
- RT-PCR CT Values ZIC1 [1]: 34.4 CT
